US20230266302A1, “SYNTHESIS AND USE OF N-BENZYL SULFONAMIDES” (THE UNIVERSITY OF TULSA, priority 2020, published 2023)

Assays:
Test in all cases: Cytotoxicity testing, CellTiter-Blue assay (FIG. 9)
Type in all cases: cell-based
Settings in all cases: 100 μM, 24 hour compound incubation, result in words
H293 (kidney cancer) = test system: H293 (kidney cancer)
Protocol: (§1) The cytotoxicity tests were carried out in the following manner. Living cells are known to convert resazurin to the fluorescent compound resorufin. Test systems which rely upon this reaction are commercially available. One such test is known at the Cell Titer Blue Cell Viability test assay from Promega. Cell cultures for each of the identified cancer lines were obtained from ATCC and maintained in Dulbecco's Modified Eagle Medium (DMEM) supplemented with 10% fetal bovine serum (FBS) and pen/strep. As known to those skilled in the art, DMEM typically includes the components identified below.
(§2) The test method provides for incubating the cell cultures at 37° C. Additionally, the cell cultures are kept under an atmosphere containing 5% CO2. After allowing for proliferation of the cells, the cells were distributed across a plurality of test cells containing from 100 μL DMEM plus 10% FBS and allowed to attach to the surface of the cells. Typically, the time for attachment will require about 12 hours to about 18 hours. Following attachment, the cells were treated with either a solvent control or the N-benzyl sulfonamide compound of interest dissolved in a suitable solvent such as but not limited to DMSO. Typically, about 18 hours to about 36 hours are required to determine the effect of the N-benzyl sulfonamide compound of interest on cell viability. Following treatment of the cells with the N-benzyl sulfonamide or control, the toxicity of the compound to the cells will be determined by addition of 10 μl of CellTiter-Blue reagent, i.e. resazurin. Typically, the resazurin is added between about 18 hours to about 36 hours after treating the cells with the N-benzyl sulfonamides or the control. The cells are allowed to consume and convert the resazurin to resorufin for about one to four hours. Subsequently, the fluorescence of […] is measured by excitation at 560 nm and recording the emission at 590 nm within an instrument configured to measure fluorescence intensity. Two commercially available systems are the BioTek Cytation 5 plate reader and the Promega Glomax Multi+detection system. […] The method for determining IC50 values is well known in the art and will not be discussed further. As known to those skilled in the art, IC50 is a quantitative measure that indicates how much of a particular inhibitory substance (e.g. drug) is needed to inhibit, in vitro, a given biological process or biological component by 50%. Therefore, each N-benzyl sulfonamide will be tested over a range of concentrations. Typically, the concentration ranges will be: 6.25 μM, 12.5 μM, 25 μM, 50 μM, and 100 μM. The control in this method is normally dimethyl […] (DMSO) or other solvent suitable for dissolving the compounds to be tested. FIG. 8 depicts the % cell viability for the indicated compounds depicted in FIG. 7.
(§3) The Table of FIG. 9 provides the results of cytotoxicity testing a 100 μM concentration of compounds 2, 5-9, 11-12, 14, 16, 18-22 of FIG. 7 against the indicated cancer cell lines using CellTiter-Blue assay with 24 hour compound incubation time. FIG. 9 reflects the percent reduction in cell viability resulting from the treatment of the indicated cancer cell lines with the indicated compounds. As indicated by the boxed values in FIG. 9, compounds 2, 5, and 6 would be considered effective against H293. […] The Table of FIG. 10 provides a comparison of the IC50 values of select compounds from FIG. 7 to the IC50 values of two known anti-cancer sulfonamides, ABT-751 and Indisulam. As indicated by FIG. 10, the identified compounds performed remarkably better than the known anti-cancer agents. Thus, the identified compounds are expected to have greater anti-cancer potency.

HeLa (cervical cancer) = test system: HeLa (cervical cancer)
Protocol: as §1, §2, §3

[1] = test system: MCF10A (non-cancerous breast)
Protocol: as §1, §2, §3

NCI-H196 (lung cancer) = test system: NCI-H196 (lung cancer)
Protocol: as §1, §2, §3

O=S(=O)(NCc1c[nH]c2ccccc12)c1ccc(Cl)cc1 [Compound 2, N-[(1H-indol-3-yl)methyl]-4-chlorobenzenesulfonamide]
percent reduction in cell viability, H293 (H293 (kidney cancer)): effective

Cc1ccc(S(=O)(=O)NCc2c[nH]c3cccc(Br)c23)cc1 [Compound 5, N-[(4-bromo-1H-indol-3-yl)methyl]-4-methylbenzenesulfonamide]
percent reduction in cell viability, H293 (H293 (kidney cancer)): effective
percent reduction in cell viability, HeLa (HeLa (cervical cancer)): displayed effectiveness
percent reduction in cell viability, MCF10A [1]: displayed effectiveness
percent reduction in cell viability, NCI-H196 (NCI-H196 (lung cancer)): displayed effectiveness

Cc1cccc2c(CNS(=O)(=O)c3ccccc3)c[nH]c12 [Compound 6, N-[(7-methyl-1H-indol-3-yl)methyl]benzenesulfonamide]
percent reduction in cell viability, H293 (H293 (kidney cancer)): effective
